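96-well plates; 48 h exposure; 5 concentrations. Endpoints by linear interpolation between flanking doses. Not reached: highest tested concentration assigned. The concentration for 50% growth inhibition is given as GI50.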 Activity calls are given as the source filed them. Rule as the data show it: active = GI50 up to about 1.1 µM and inactive = higher.
Key:
Experiment in all cases: NCI-60 cell line screen, 48 h
[1] = tested on: 786-0
[2] = tested on: A498
[3] = tested on: A549
[4] = tested on: ACHN
[5] = tested on: CCRF-CEM
[6] = tested on: COLO 205
[7] = tested on: DLD-1
[8] = tested on: DMS-114
[9] = tested on: DMS-273
[10] = tested on: EKVX
[11] = tested on: HCT-116
[12] = tested on: HCT-15
[13] = tested on: HL-60
[14] = tested on: HOP-18
[15] = tested on: HOP-62
[16] = tested on: HT-29
[17] = tested on: IGROV-1
[18] = tested on: K562
[19] = tested on: KM-20L2
[20] = tested on: KM12
[21] = tested on: LOX IMVI
[22] = tested on: LXFL 529
[23] = tested on: M14
[24] = tested on: M19-MEL
[25] = tested on: MOLT-4
[26] = tested on: Malme-3M
[27] = tested on: NCI-H226
[28] = tested on: NCI-H23
[29] = tested on: NCI-H522
[30] = tested on: OVCAR-3
[31] = tested on: OVCAR-4
[32] = tested on: OVCAR-8
[33] = tested on: RPMI-8226
[34] = tested on: RXF 393
[35] = tested on: SF-268
[36] = tested on: SF-295
[37] = tested on: SF-539
[38] = tested on: SK-MEL-28
[39] = tested on: SK-MEL-2
[40] = tested on: SK-MEL-5
[41] = tested on: SK-OV-3
[42] = tested on: SN12C
[43] = tested on: SNB-19
[44] = tested on: SNB-75
[45] = tested on: SNB-78
[46] = tested on: SR
[47] = tested on: SW-620
[48] = tested on: U-251
[49] = tested on: UACC-257
[50] = tested on: UACC-62
[51] = tested on: UO-31
[52] = tested on: CAKI-1
[53] = tested on: HCC 2998
[54] = tested on: HOP-92
[55] = tested on: NCI-H460
[56] = tested on: OVCAR-5
[57] = tested on: TK-10

CC12CCC(=O)N1c1ccc([N+](=O)[O-])cc1N2 (stereo not given)
GI50 [1]: > 100 µM (inactive)
GI50 [2]: > 100 µM (inactive)
GI50 [3]: > 100 µM (inactive)
GI50 [4]: > 100 µM (inactive)
GI50 [5]: > 100 µM (inactive)
GI50 [6]: > 100 µM (inactive)
GI50 [7]: > 100 µM (inactive)
GI50 [8]: > 100 µM (inactive)
GI50 [9]: > 100 µM (inactive)
GI50 [10]: > 100 µM (inactive)
GI50 [11]: > 100 µM (inactive)
GI50 [12]: > 100 µM
GI50 [13]: 92.9 µM (inactive)
GI50 [14]: > 100 µM (inactive)
GI50 [15]: > 100 µM (inactive)
GI50 [16]: > 100 µM (inactive)
GI50 [17]: > 100 µM (inactive)
GI50 [18]: > 100 µM (inactive)
GI50 [19]: > 100 µM (inactive)
GI50 [20]: > 100 µM (inactive)
GI50 [21]: > 100 µM (inactive)
GI50 [22]: > 100 µM (inactive)
GI50 [23]: > 100 µM (inactive)
GI50 [24]: > 100 µM (inactive)
GI50 [25]: 83.4 µM (inactive)
GI50 [26]: > 100 µM (inactive)
GI50 [27]: 42.3 µM (inactive)
GI50 [28]: > 100 µM (inactive)
GI50 [29]: > 100 µM (inactive)
GI50 [30]: > 100 µM (inactive)
GI50 [31]: > 100 µM (inactive)
GI50 [32]: > 100 µM (inactive)
GI50 [33]: > 100 µM (inactive)
GI50 [34]: > 100 µM (inactive)
GI50 [35]: > 100 µM (inactive)
GI50 [36]: > 100 µM (inactive)
GI50 [37]: > 100 µM (inactive)
GI50 [38]: > 100 µM (inactive)
GI50 [39]: > 100 µM (inactive)
GI50 [40]: > 100 µM (inactive)
GI50 [41]: > 100 µM (inactive)
GI50 [42]: > 100 µM (inactive)
GI50 [43]: > 100 µM (inactive)
GI50 [44]: > 100 µM (inactive)
GI50 [45]: > 100 µM (inactive)
GI50 [46]: 71 µM (inactive)
GI50 [47]: > 100 µM (inactive)
GI50 [48]: > 100 µM (inactive)
GI50 [49]: > 100 µM (inactive)
GI50 [50]: > 100 µM (inactive)
GI50 [51]: > 100 µM (inactive)

COC1=CC(=O)C2C(C1=O)[C@@H]1c3ccccc3OC[C@H]21 (stereo not given in full)
GI50 [1]: > 100 µM (inactive)
GI50 [2]: > 100 µM (inactive)
GI50 [3]: > 100 µM (inactive)
GI50 [4]: > 100 µM (inactive)
GI50 [52]: > 100 µM (inactive)
GI50 [5]: > 100 µM (inactive)
GI50 [6]: > 100 µM (inactive)
GI50 [7]: > 100 µM (inactive)
GI50 [8]: > 100 µM (inactive)
GI50 [9]: > 100 µM (inactive)
GI50 [10]: > 100 µM (inactive)
GI50 [53]: > 100 µM (inactive)
GI50 [11]: > 100 µM (inactive)
GI50 [12]: > 10 µM
GI50 [13]: > 100 µM (inactive)
GI50 [14]: > 100 µM (inactive)
GI50 [15]: > 100 µM (inactive)
GI50 [54]: > 100 µM (inactive)
GI50 [16]: > 100 µM (inactive)
GI50 [18]: > 100 µM (inactive)
GI50 [19]: > 100 µM (inactive)
GI50 [20]: > 100 µM (inactive)
GI50 [21]: > 100 µM (inactive)
GI50 [22]: > 100 µM (inactive)
GI50 [23]: > 100 µM (inactive)
GI50 [25]: > 100 µM (inactive)
GI50 [26]: > 100 µM (inactive)
GI50 [27]: > 100 µM (inactive)
GI50 [28]: > 100 µM (inactive)
GI50 [55]: > 100 µM (inactive)
GI50 [29]: 49.9 µM (inactive)
GI50 [30]: > 100 µM (inactive)
GI50 [31]: > 100 µM (inactive)
GI50 [56]: > 100 µM (inactive)
GI50 [32]: > 100 µM (inactive)
GI50 [33]: > 100 µM (inactive)
GI50 [34]: > 100 µM (inactive)
GI50 [35]: > 100 µM (inactive)
GI50 [36]: > 100 µM (inactive)
GI50 [37]: > 100 µM (inactive)
GI50 [38]: > 100 µM (inactive)
GI50 [39]: > 100 µM (inactive)
GI50 [40]: > 100 µM (inactive)
GI50 [41]: > 100 µM (inactive)
GI50 [43]: > 100 µM (inactive)
GI50 [44]: > 100 µM (inactive)
GI50 [45]: > 100 µM (inactive)
GI50 [47]: > 100 µM (inactive)
GI50 [57]: > 100 µM (inactive)
GI50 [48]: > 100 µM (inactive)
GI50 [51]: > 100 µM (inactive)

CC[C@@]1(O)C[C@H](OC2CC(N(C)C)C(OC3CC(O)C(OC4CCC(=O)C(C)O4)C(C)O3)C(C)O2)c2c(cc3c(c2O)C(=O)c2c(O)cccc2C3=O)[C@H]1C(=O)OC (stereo not given in full)
GI50 [5]: 0.0184 µM (active)
GI50 [7]: 0.0327 µM (active)
GI50 [13]: 0.0317 µM (active)
GI50 [14]: 0.0736 µM (active)
GI50 [16]: 0.0147 µM (active)
GI50 [19]: 0.0128 µM (active)
GI50 [22]: 0.00904 µM (active)
GI50 [33]: 0.0278 µM (active)
